SMILES strings stand for the structures.

For orientation: melting point means the temperature, or range, at which the solid turns liquid.

One series relates to Setaria viridis. The series can be described thus: Test Example 4: herbicidal effect by soil treatment (symbol G). The conditions noted are these: application herbicide amount 320 g/ha. The format is in vivo. Summed up:
(§1)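 Seeds were sown in sterilized diluvial soil, covered with about 1.5 cm of soil, and the soil surface was sprayed with a water-diluted emulsion of the compound at a predetermined rate. Plants grew in a greenhouse at 25° C. to 30° C.; effects were scored visually 3 weeks after application.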

The subject of a further series is Monochoria vaginalis. Put plainly: Test Example 1: herbicidal activity, application before weed generation in submerged conditions (symbol C). The format is in vivo. Particulars: application herbicide amount 320 g/ha. In outline:
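Weeds are sown into submerged alluvial soil alongside transplanted 2.5-leaf rice, and the compound, as an emulsion diluted to a set rate, is applied onto the water before emergence. Rating on the 0–5 herbicidal-ratio scale follows 3 weeks of greenhouse growth at 25–30 °C.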

The next series relates to Leptochloa chinensis. Put plainly: Test Example 3: herbicidal effect by foliage application, Wagner pot (symbol D). The conditions noted are these: application herbicide amount 320 g/ha. The format is in vivo. In outline: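 Foliar spray of a water-diluted emulsion at a predetermined herbicide amount, applied to 14-day-old plants. Seedlings were raised in flooded alluvial soil (0.1–0.5 cm water) at 25–30 °C in a greenhouse. Injury was rated after 3 weeks against fixed criteria.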

A further series relates to Abutilon theophrasti. Put plainly: Test Example 5: herbicidal effect by foliage application, plastic box (symbol M). The format is in vivo. The conditions noted are these: 320 g/ha, 3 weeks after application. In outline: (§2)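 Seeds were sown in sterilized diluvial soil, covered with about 1.5 cm of soil and grown 14 days in a greenhouse at 25° C. to 30° C. An emulsifiable formulation diluted in water to a set rate was sprayed over foliage, and injury was scored 3 weeks later.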

Series [1] deals with Echinochloa crus-galli var. crus-galli. The series can be described thus: Test Example 5: herbicidal effect by foliage application, plastic box (symbol H). The format is in vivo. Particulars: 320 g/ha, 3 weeks after application. In outline:
as §2

In another series the test system is Apera spica-venti. The series can be described thus: Test Example 4: herbicidal effect by soil treatment (symbol L). The class given is in vivo. The conditions noted are these: application herbicide amount 320 g/ha. Summed up:
as §1

The next series has as its system rapeseed. Put plainly: Test Example 5: effect on crop by foliage application, plastic box (symbol g). The format is in vivo. Particulars: 320 g/ha, 3 weeks after application. In outline: (§3)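 Greenhouse test at 25° C. to 30° C. Seeds of crops and weeds were spot-sown in boxes of sterilized diluvial soil under roughly 1.5 cm soil cover, then grown for foliage treatment.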

A further series concerns corn. Put plainly: Test Example 5: effect on crop by foliage application, plastic box (symbol c). The format is in vivo. Particulars: 320 g/ha, 3 weeks after application. Summed up:
as §3

A further series has as its system Amaranthus retroflexus. Put plainly: Test Example 5: herbicidal effect by foliage application, plastic box (symbol N). The class given is in vivo. The conditions noted are these: 320 g/ha, 3 weeks after application. Summed up:
as §2

The next series deals with Veronica persica. Put plainly: Test Example 4: herbicidal effect by soil treatment (symbol R). Particulars: application herbicide amount 320 g/ha. The format is in vivo. Summed up:
as §1

The next series concerns Avena fatua. The series can be described thus: Test Example 4: herbicidal effect by soil treatment (symbol I). The class given is in vivo. The conditions noted are these: application herbicide amount 320 g/ha. Summed up:
as §1

The subject of series [2] is Stellaria media. Put plainly: Test Example 5: herbicidal effect by foliage application, plastic box (symbol P). The format is in vivo. The conditions noted are these: 320 g/ha, 3 weeks after application. In outline: as §2
In the next series the test system is transplanted rice plant. The series can be described thus: Test Example 1: effect on crop, application before weed generation in submerged conditions (symbol a). The class given is in vivo. The conditions noted are these: application herbicide amount 320 g/ha. In outline: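 Alluvial soil pots flooded to 4 cm water, sown with Echinochloa oryzacola, Scirpus juncoides and Monochoria vaginalis, then transplanted with 2.5 leaf stage rice seedlings; pre-emergence application. Greenhouse 25° C. to 30° C.; scored 0–5 by herbicidal ratio 3 weeks after application.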

Series [3] deals with Stellaria media. Put plainly: Test Example 4: herbicidal effect by soil treatment (symbol P). The format is in vivo. The conditions noted are these: application herbicide amount 320 g/ha. Summed up:
as §1

A further series relates to Alopecurus myosuroides. The series can be described thus: Test Example 4: herbicidal effect by soil treatment (symbol J). The format is in vivo. Particulars: application herbicide amount 320 g/ha. Summed up: as §1
Series [4] has as its system Chenopodium album. The series can be described thus: Test Example 5: herbicidal effect by foliage application, plastic box (symbol O). The conditions noted are these: 320 g/ha, 3 weeks after application. The class given is in vivo. Summed up: as §2
The subject of series [5] is Chenopodium album. The series can be described thus: Test Example 4: herbicidal effect by soil treatment (symbol O). The class given is in vivo. The conditions noted are these: application herbicide amount 320 g/ha. Summed up:
as §1

The test system of a further series is Galium spurium. Put plainly: Test Example 4: herbicidal effect by soil treatment (symbol Q). The conditions noted are these: application herbicide amount 320 g/ha. The class given is in vivo. In outline:
as §1

The next series has as its system Lolium multiflorum Lam. The series can be described thus: Test Example 5: herbicidal effect by foliage application, plastic box (symbol K). The format is in vivo. Particulars: 320 g/ha, 3 weeks after application. Summed up:
as §2

Consider `CCC(CC1CC(O)=C(c2c(C)cc(C)cc2C)C1=O)=NOC` (stereo not drawn) [1-038], for which the melting point lay within 147 to 149 °C. Further, the “G (Setaria viridis) herbicidal effect grade” value in the series with Setaria viridis was 5 (Herbicidal ratio of 90% or more (almost completely withered)). Moreover, the “Herbicidal effect grade, C: Monochoria vaginalis” value (shortened to “Herbicidal effect grade, C”) in the series on Monochoria vaginalis is 3 (Herbicidal ratio of 40% or higher and lower than 70%). Further, the “herbicidal effect on D (Leptochloa chinensis), grade 0-5” value (“herbicidal effect on D” below) in the series on Leptochloa chinensis is 5 (Herbicidal ratio of 90% or more (almost completely withered)). Also, the “M: Abutilon theophrasti, herbicidal effect grade” value (from here on “M: Abutilon theophrasti”) with Abutilon theophrasti was 4 (Herbicidal ratio of 70% or higher and lower than 90%). The “H: Echinochloa crus-galli var. crus-galli, herbicidal effect grade” value in series [1] is 5 (Herbicidal ratio of 90% or more (almost completely withered)). In addition, the “L (Apera spica-venti) herbicidal effect grade” value in the series with Apera spica-venti was 5 (Herbicidal ratio of 90% or more (almost completely withered)). Moreover, the “g: rapeseed, effect on crop grade” value in the series with rapeseed is 4 (Herbicidal ratio of 70% or higher and lower than 90%). Besides, the “c: corn, effect on crop grade” value in the series with corn is 4 (Herbicidal ratio of 70% or higher and lower than 90%). Besides, in the series on Amaranthus retroflexus, the “N: Amaranthus retroflexus, herbicidal effect grade” value (from here on “N: Amaranthus retroflexus”) was 2 (Herbicidal ratio of 20% or higher and lower than 40%). Besides, the “R (Veronica persica) herbicidal effect grade” value in the series with Veronica persica is recorded as 0 (Herbicidal ratio of 5% or lower (almost no effect)). Further, the “I (Avena fatua) herbicidal effect grade” value in the series with Avena fatua is listed as 0 (Herbicidal ratio of 5% or lower (almost no effect)). Further, the “P: Stellaria media, herbicidal effect grade” value (“P: Stellaria media” below) with Stellaria media [2] is 0 (Herbicidal ratio of 5% or lower (almost no effect)). For the same compound, in the series with transplanted rice plant, the “Effect grade on crop, a: transplanted rice plant” value (“Effect grade on crop” below) is on record as 5 (Herbicidal ratio of 90% or more (almost completely withered)). Further, the “P (Stellaria media) herbicidal effect grade” value with Stellaria media [3] is 0 (Herbicidal ratio of 5% or lower (almost no effect)). Besides, in the series with Alopecurus myosuroides, the “J (Alopecurus myosuroides) herbicidal effect grade” value is listed as 5 (Herbicidal ratio of 90% or more (almost completely withered)). The “O: Chenopodium album, herbicidal effect grade” value (“O: Chenopodium album” below) with Chenopodium album [4] is recorded as 0 (Herbicidal ratio of 5% or lower (almost no effect)). Also, in the series on Chenopodium album [5], the “O (Chenopodium album) herbicidal effect grade” value is 0 (Herbicidal ratio of 5% or lower (almost no effect)). The “Q (Galium spurium) herbicidal effect grade” value in the series on Galium spurium is 0 (Herbicidal ratio of 5% or lower (almost no effect)). Further, the “K: Lolium multiflorum Lam., herbicidal effect grade” value with Lolium multiflorum Lam. is on record as 5 (Herbicidal ratio of 90% or more (almost completely withered)).
`CCC(C)C(CC1CC(O)=C(c2c(C)cc(C)cc2C)C1=O)=NOC` (stereo not drawn) [1-066] came in with a melting point of 154 to 156 °C. In addition, the “G (Setaria viridis) herbicidal effect grade” value in the series with Setaria viridis is 4 (Herbicidal ratio of 70% or higher and lower than 90%). Besides, in the series on Monochoria vaginalis, the “Herbicidal effect grade, C” value is reported as 0 (Herbicidal ratio of 5% or lower (almost no effect)). Moreover, the “herbicidal effect on D” value in the series with Leptochloa chinensis was 2 (Herbicidal ratio of 20% or higher and lower than 40%). Besides, in the series with Abutilon theophrasti, the “M: Abutilon theophrasti” value is 1 (Herbicidal ratio of 5% or higher and lower than 20%). Further, the “H: Echinochloa crus-galli var. crus-galli, herbicidal effect grade” value in series [1] is reported as 5 (Herbicidal ratio of 90% or more (almost completely withered)). Besides, the “L (Apera spica-venti) herbicidal effect grade” value with Apera spica-venti was 5 (Herbicidal ratio of 90% or more (almost completely withered)). Moreover, the “g: rapeseed, effect on crop grade” value in the series on rapeseed is 3 (Herbicidal ratio of 40% or higher and lower than 70%). Also, in the series with corn, the “c: corn, effect on crop grade” value was 4 (Herbicidal ratio of 70% or higher and lower than 90%). Besides, in the series on Amaranthus retroflexus, the “N: Amaranthus retroflexus” value is 0 (Herbicidal ratio of 5% or lower (almost no effect)). The “R (Veronica persica) herbicidal effect grade” value in the series with Veronica persica is 0 (Herbicidal ratio of 5% or lower (almost no effect)). Also, the “I (Avena fatua) herbicidal effect grade” value with Avena fatua is 0 (Herbicidal ratio of 5% or lower (almost no effect)). For the same compound, in the series on Stellaria media [2], the “P: Stellaria media” value is 0 (Herbicidal ratio of 5% or lower (almost no effect)). For the same compound, in the series on transplanted rice plant, the “Effect grade on crop” value is 5 (Herbicidal ratio of 90% or more (almost completely withered)). Moreover, the “P (Stellaria media) herbicidal effect grade” value in the series with Stellaria media [3] was 0 (Herbicidal ratio of 5% or lower (almost no effect)). Moreover, in the series on Alopecurus myosuroides, the “J (Alopecurus myosuroides) herbicidal effect grade” value is 5 (Herbicidal ratio of 90% or more (almost completely withered)). Besides, in the series with Chenopodium album [4], the “O: Chenopodium album” value was 1 (Herbicidal ratio of 5% or higher and lower than 20%). Besides, in the series on Chenopodium album [5], the “O (Chenopodium album) herbicidal effect grade” value is 0 (Herbicidal ratio of 5% or lower (almost no effect)). The “Q (Galium spurium) herbicidal effect grade” value with Galium spurium is recorded as 0 (Herbicidal ratio of 5% or lower (almost no effect)). Moreover, the “K: Lolium multiflorum Lam., herbicidal effect grade” value in the series with Lolium multiflorum Lam. was 5 (Herbicidal ratio of 90% or more (almost completely withered)).
`CON=C(C)CC1CC(OC)=C(c2c(C)cc(C)cc2C)C1=O` (stereo not drawn) [1-001, 2-mesityl-3-methoxy-5-{2-(methoxyimino)propyl}cyclopent-2-enone]: the melting point was 92 to 98 °C. For the same compound, the “G (Setaria viridis) herbicidal effect grade” value in the series with Setaria viridis is listed as 0 (Herbicidal ratio of 5% or lower (almost no effect)). The “Herbicidal effect grade, C” value with Monochoria vaginalis is 0 (Herbicidal ratio of 5% or lower (almost no effect)). Also, the “herbicidal effect on D” value with Leptochloa chinensis was 0 (Herbicidal ratio of 5% or lower (almost no effect)). Besides, the “M: Abutilon theophrasti” value with Abutilon theophrasti is 0 (Herbicidal ratio of 5% or lower (almost no effect)). Moreover, in series [1], the “H: Echinochloa crus-galli var. crus-galli, herbicidal effect grade” value is reported as 0 (Herbicidal ratio of 5% or lower (almost no effect)). Further, the “L (Apera spica-venti) herbicidal effect grade” value in the series with Apera spica-venti was 0 (Herbicidal ratio of 5% or lower (almost no effect)). For the same compound, the “g: rapeseed, effect on crop grade” value in the series with rapeseed is 0 (Herbicidal ratio of 5% or lower (almost no effect)). Further, in the series on corn, the “c: corn, effect on crop grade” value is 0 (Herbicidal ratio of 5% or lower (almost no effect)). The “N: Amaranthus retroflexus” value with Amaranthus retroflexus is 0 (Herbicidal ratio of 5% or lower (almost no effect)). Further, the “R (Veronica persica) herbicidal effect grade” value with Veronica persica is reported as 0 (Herbicidal ratio of 5% or lower (almost no effect)). In the series with Avena fatua, the “I (Avena fatua) herbicidal effect grade” value was 0 (Herbicidal ratio of 5% or lower (almost no effect)). The “P: Stellaria media” value with Stellaria media [2] is given as 0 (Herbicidal ratio of 5% or lower (almost no effect)). For the same compound, the “Effect grade on crop” value in the series on transplanted rice plant is on record as 0 (Herbicidal ratio of 5% or lower (almost no effect)). In addition, the “P (Stellaria media) herbicidal effect grade” value in the series with Stellaria media [3] was 0 (Herbicidal ratio of 5% or lower (almost no effect)). Further, the “J (Alopecurus myosuroides) herbicidal effect grade” value in the series with Alopecurus myosuroides is recorded as 0 (Herbicidal ratio of 5% or lower (almost no effect)). The “O: Chenopodium album” value with Chenopodium album [4] is on record as 0 (Herbicidal ratio of 5% or lower (almost no effect)). Also, the “O (Chenopodium album) herbicidal effect grade” value in the series with Chenopodium album [5] was 0 (Herbicidal ratio of 5% or lower (almost no effect)). In addition, in the series with Galium spurium, the “Q (Galium spurium) herbicidal effect grade” value is on record as 0 (Herbicidal ratio of 5% or lower (almost no effect)). Moreover, in the series on Lolium multiflorum Lam., the “K: Lolium multiflorum Lam., herbicidal effect grade” value is 0 (Herbicidal ratio of 5% or lower (almost no effect)).

(Values after patent US11000033B2, “Ketone or oxime compound, and herbicide” (NISSAN CHEMICAL CORPORATION, priority 2014, dated 2021).)
